Results reported in patent US12215085B2 (priority 2019, dated 2025).
Marks after values point to notes of the source that are not given here.

Assays:
[1] = test system: rats with beta-amyloid induced senile dementia; experiment: Water maze test, beta-amyloid induced senile dementia rats; format: in vivo, rat; details: succinate; for time for reaching the platform / orientation angle for reaching the platform / speed for reaching the platform / swimming path length for reaching the platform: x ± s
mice = experiment: General pharmacological study in mice; format: in vivo
[2] = Dynamic moisture sorption (DVS) hygroscopicity; format: physicochemical; details: 25° C.; begins to significantly absorb water at 90% relative humidity
Procedure: In order to evaluate the stability of Crystal Form A under different humidity conditions, a dynamic moisture sorption (DVS) test was carried out on the sample of Crystal Form A under the constant temperature condition of 25° C.

[3] = Day 3, 0.7 mg/kg intragastric, 0.7 mg/kg
[4] = Day 3, 1.4 mg/kg intragastric, 1.4 mg/kg
[5] = Day 3, 2.8 mg/kg intragastric, 2.8 mg/kg
[6] = Day 4, 0.7 mg/kg intragastric, 0.7 mg/kg
[7] = Day 4, 1.4 mg/kg intragastric, 1.4 mg/kg
[8] = Day 4, 2.8 mg/kg intragastric, 2.8 mg/kg
[9] = Day 5, 0.7 mg/kg intragastric, 0.7 mg/kg
[10] = Day 5, 1.4 mg/kg intragastric, 1.4 mg/kg
[11] = Day 5, 2.8 mg/kg intragastric, 2.8 mg/kg
[12] = Day 6, 0.7 mg/kg intragastric, 0.7 mg/kg
[13] = Day 6, 1.4 mg/kg intragastric, 1.4 mg/kg
[14] = Day 6, 2.8 mg/kg intragastric, 2.8 mg/kg

With `Nc1c2c(nc3c1CCCC3)CCCC2.O=C(O)CCC(=O)O` [Crystal Form A, 9-amino-1,2,3,4,5,6,7,8-octahydroacridine succinate] the “time for reaching the platform” value ([1]; Day 2, 2.8 mg/kg intragastric, 2.8 mg/kg) was 27.92 ± 18.96 s, the “adopted strategy for reaching the platform (the peripheral type and the random type %)” value [1, 3] was 87.50% and the “orientation angle for reaching the platform” value (“orientation angle” for short) [1, 3] was 59.46 ± 34.15 °. For the same molecule, the “speed for reaching the platform” value [1, 3] was 25.56 ± 10.30 cm/s, the “swimming path length for reaching the platform” value (shortened to “swimming path length”) [1, 3] was 922.69 ± 927.53 cm and the “time for reaching the platform” value [1, 3] was 39.88 ± 39.00 s. The “adopted strategy for reaching the platform (the peripheral type and the random type %)” value [1, 4] was 70.50%, the “orientation angle” value [1, 4] was 49.79 ± 16.12 ° and the “speed for reaching the platform” value [1, 4] was 23.53 ± 5.74 cm/s. The “swimming path length” value [1, 4] was 359.75 ± 164.16 cm, the “time for reaching the platform” value [1, 4] was 15.74 ± 5.83 s and the “adopted strategy for reaching the platform (the peripheral type and the random type %)” value [1, 5] was 70.00%. The “orientation angle” value [1, 5] was 41.19 ± 18.30 °, the “speed for reaching the platform” value [1, 5] was 22.47 ± 2.59 cm/s and the “swimming path length” value [1, 5] was 426.44 ± 213.56 cm. The “time for reaching the platform” value [1, 5] was 20.24 ± 10.26 s, the “adopted strategy for reaching the platform (the peripheral type and the random type %)” value [1, 6] was 64.50* % and the “orientation angle” value [1, 6] was 47.21 ± 18.21 °. The “speed for reaching the platform” value [1, 6] was 24.92 ± 2.52 cm/s, the “swimming path length” value [1, 6] was 806.38 ± 1014.62 cm and the “time for reaching the platform” value [1, 6] was 32.05 ± 39.88 s. For the same molecule, the “adopted strategy for reaching the platform (the peripheral type and the random type %)” value [1, 7] was 77.50%, the “orientation angle” value [1, 7] was 53.54 ± 25.57 ° and the “speed for reaching the platform” value [1, 7] was 25.56 ± 4.54 cm/s. For the same molecule, the “swimming path length” value [1, 7] was 493.65 ± 256.60 cm, the “time for reaching the platform” value [1, 7] was 20.82 ± 11.32 s and the “adopted strategy for reaching the platform (the peripheral type and the random type %)” value [1, 8] was 67.50* %. The “orientation angle” value [1, 8] was 47.22 ± 23.29 °, the “speed for reaching the platform” value [1, 8] was 27.31 ± 4.62 cm/s and the “swimming path length” value [1, 8] was 600.43 ± 563.07 cm. The “time for reaching the platform” value [1, 8] was 22.73 ± 21.88 s, the “adopted strategy for reaching the platform (the peripheral type and the random type %)” value [1, 9] was 75.50* % and the “orientation angle” value [1, 9] was 54.72 ± 24.68 °. The “speed for reaching the platform” value [1, 9] was 27.17 ± 13.51 cm/s, the “swimming path length” value [1, 9] was 571.38 ± 716.43 cm and the “time for reaching the platform” value [1, 9] was 25.95 ± 33.84 s. For the same molecule, the “adopted strategy for reaching the platform (the peripheral type and the random type %)” value [1, 10] was 57.50* %, the “orientation angle” value [1, 10] was 53.41 ± 23.18 ° and the “speed for reaching the platform” value [1, 10] was 20.14 ± 4.25 cm/s. The “swimming path length” value [1, 10] was 278.26 ± 125.79 cm, the “time for reaching the platform” value [1, 10] was 14.95 ± 9.19 s and the “adopted strategy for reaching the platform (the peripheral type and the random type %)” value [1, 11] was 68.00** %. The “orientation angle” value [1, 11] was 43.23 ± 15.80 °, the “speed for reaching the platform” value [1, 11] was 23.96 ± 4.94 cm/s and the “swimming path length” value [1, 11] was 312.55 ± 230.50 cm. The “time for reaching the platform” value [1, 11] was 14.17 ± 11.56 s, the “adopted strategy for reaching the platform (the peripheral type and the random type %)” value [1, 12] was 65.50% and the “orientation angle” value [1, 12] was 46.47 ± 18.69 °. For the same molecule, the “speed for reaching the platform” value [1, 12] was 23.50 ± 9.00 cm/s, the “swimming path length” value [1, 12] was 461.68 ± 417.67 cm and the “time for reaching the platform” value [1, 12] was 21.76 ± 23.11 s. The “adopted strategy for reaching the platform (the peripheral type and the random type %)” value [1, 13] was 68.50%, the “orientation angle” value [1, 13] was 46.29 ± 22.64 ° and the “speed for reaching the platform” value [1, 13] was 20.87 ± 4.35 cm/s. The “swimming path length” value [1, 13] was 402.97 ± 434.93 cm, the “time for reaching the platform” value [1, 13] was 20.62 ± 22.63 s and the “adopted strategy for reaching the platform (the peripheral type and the random type %)” value [1, 14] was 52.50** %. For the same molecule, the “orientation angle” value [1, 14] was 40.91 ± 15.25 °, the “speed for reaching the platform” value [1, 14] was 24.73 ± 4.83 cm/s and the “swimming path length” value [1, 14] was 252.87 ± 161.30 cm. For the same molecule, the “time for reaching the platform” value [1, 14] was 10.70 ± 6.74 s, the “general state, autonomous activity and coordinated movement of the mice” value (mice; 4, 8, 16 mg/kg once intragastric) was “no significant influence” and the “sleep number of animals with subthreshold dose of pentobarbital sodium” value (mice; 4, 8 and 16 mg/kg once intragastric) was “no obvious influence”. The DVS weight gain [2] was “up to 5.2%”.
